tested on: pERK1/2(THR202/TYR204) level in SW620 cell line (KRAS G12V); test: KRAS G12V pERK assay (HTRF) in SW620 cell line; type: cell-based; conditions: Homo sapiens, SW-620, 2 h, SW620 cells, 2 hrs compound treatment
Experimental: (§1) SW620 cell line was used in this study. Cells were maintained in RPMI 1640 supplemented with 10% fetal bovine serum (Thermo Fisher), 50 units/mL penicillin and streptomycin (Thermo Fisher) and kept at 37° C. in a humidified atmosphere of 5% CO2 in air. Cells were reinstated from frozen stocks that were laid down within 30 passages from the original cells purchased. 40000 cells per well were seeded into a 96-well plate and incubated overnight. Cells were treated with a 10-point dilution series. The final compound concentration is from 0 to 10 μM. After 2 hrs compound treatment, cells were lysed, and the pERK1/2(THR202/TYR204) level in the cell lysates was detected by HTRF kit (Cisbio). In brief, a total of 16 μL of cell lysate from each well of a 96-well plate was transferred to a 384-well white assay plate. Lysate from each well was incubated with 2 μL of Eu3+-cryptate (donor) labeled anti-phospho-ERK1/2 and 2 μL of D2 (acceptor) labeled anti-phospho-ERK1/2 antibodies (Cisbio) overnight in dark at room temperature. When donor and acceptor are in close proximity, excitation of the donor with laser triggers a Fluorescence Resonance Energy Transfer (FRET) towards the acceptor, which in turn fluoresces at 655 nm wavelength. FRET signals were measured using a PHERAstar FSX reader (BMG Labtech). IC50 determination was performed by fitting the curve of percent inhibition versus the log of the inhibitor concentration using Dotmatics.

Row | SMILES | IC50
1 | C[C@@H]1Oc2nc(-c3cc(N)cc(Cl)c3C(F)(F)F)c(F)c3nc(OC[C@@]45CCCN4C[C@H](F)C5)nc(c23)N2CCCC[C@@H]12 [Example 33, 3-chloro-5-((5S,5aS)-1-fluoro-11-(((2R,7aS)-2-fluorotetrahydro-1H-pyrrolizin-7a(5H)-yl)methoxy)-5-methyl-5,5a,6,7,8,9-hexahydro-4-oxa-3,9a,10,12-tetraazabenzo[4,5]cyclohepta[1,2,3-de]naphthalen-2-yl)-4-(trifluoromethyl)aniline] | 43 nM
2 | Cc1cc(N)cc(-c2nc3c4c(nc(OC[C@@]56CCCN5C[C@H](F)C6)nc4c2F)N2CCC[C@@H]2CCO3)c1C(F)(F)F [Example 12, 3-((R)-7-fluoro-5-(((2R,7aS)-2-fluorotetrahydro-1H-pyrrolizin-7a(5H)-yl)methoxy)-1,2,3,11,12,12a-hexahydro-10-oxa-3a,4,6,9-tetraazacyclopenta[4,5]cycloocta[1,2,3-de]naphthalen-8-yl)-5-methyl-4-(trifluoromethyl)aniline] | 56 nM
3 | CC1Oc2nc(-c3cc(N)cc(Cl)c3C(F)(F)F)c(F)c3nc(OC[C@@]45CCCN4C[C@H](F)C5)nc(c23)N2CCC[C@@H]12 (stereo partly drawn) [Example 24, 3-chloro-5-((11aS)-7-fluoro-5-(((2R,7aS)-2-fluorotetrahydro-1H-pyrrolizin-7a(5H)-yl)methoxy)-11-methyl-2,3,11,11a-tetrahydro-1H-10-oxa-3a,4,6,9-tetraazanaphtho[1,8-ef]azulen-8-yl)-4-(trifluoromethyl)aniline] | 121 nM
4 | C#Cc1c(F)ccc2cc(O)cc(-c3nc4c5c(nc(OC[C@@]67CCCN6C[C@H](F)C7)nc5c3F)N3[C@H](CO4)C[C@@H]4C[C@@H]43)c12 [Example 32, 5-ethynyl-6-fluoro-4-((5aS,6aS,7aS)-1-fluoro-9-(((2R,7aS)-2-fluorotetrahydro-1H-pyrrolizin-7a(5H)-yl)methoxy)-5,5a,6,6a,7,7a-hexahydro-4-oxa-3,7b,8,10-tetraazacyclopropa[a]naphtho[1,8-gh]azulen-2-yl)naphthalen-2-ol] | 26 nM
5 | C#Cc1c(F)ccc2cc(O)cc(-c3nc4c5c(nc(OC[C@@]67CCCN6C[C@H](F)C7)nc5c3F)N3CCCC[C@H]3CO4)c12 [Example 16, 5-ethynyl-6-fluoro-4-((S)-1-fluoro-11-(((2R,7aS)-2-fluorotetrahydro-1H-pyrrolizin-7a(5H)-yl)methoxy)-5,5a,6,7,8,9-hexahydro-4-oxa-3,9a,10,12-tetraazabenzo[4,5]cyclohepta[1,2,3-d]naphthalen-2-yl)naphthalen-2-ol] | 5.9 nM
6 | N#Cc1c(N)sc2c(F)ccc(-c3cc4c5c(nc(OC[C@@]67CCCN6C[C@H](F)C7)nc5c3F)N3CCC[C@H]3CO4)c12 [Example 1, 2-amino-7-fluoro-4-((S)-4-fluoro-2-(((2R,7aS)-2-fluorotetrahydro-1H-pyrrolizin-7a(5H)-yl)methoxy)-8a,9,10,11-tetrahydro-8H-pyrrolo[2′,1′:3,4][1,4]oxazepino[5,6,7-de]quinazolin-5-yl)benzo[b]thiophene-3-carbonitrile] | 290 nM
7 | C#Cc1c(F)ccc2cc(O)cc(-c3cc4c5c(nc(OC[C@@]67CCCN6C[C@H](F)C7)nc5c3F)N3CCCCC3CCO4)c12 (stereo partly drawn) [Example 6, 5-ethynyl-6-fluoro-4-(1-fluoro-13-(((2R,7aS)-2-fluorotetrahydro-1H-pyrrolizin-7a(5H)-yl)methoxy)-6,6a,7,8,9,10-hexahydro-5H-pyrido[1′,2′:5,6][1,5]oxazocino[4,3,2-de]quinazolin-2-yl)naphthalen-2-ol] | 271 nM
8 | Nc1cc(Cl)c(C(F)(F)F)c(-c2nc3c4c(nc(OC[C@@]56CCCN5C[C@H](F)C6)nc4c2F)N2CCC[C@H]2CO3)c1 [Example 9, 3-chloro-5-((S)-7-fluoro-5-(((2R,7aS)-2-fluorotetrahydro-1H-pyrrolizin-7a(5H)-yl)methoxy)-2,3,11,11a-tetrahydro-1H-10-oxa-3a,4,6,9-tetraazanaphtho[1,8-e]azulen-8-yl)-4-(trifluoromethyl)aniline] | 890 nM
9 | N#Cc1c(N)sc2c(F)ccc(-c3c(Cl)c4c5c(nc(OC[C@@]67CCCN6C[C@H](F)C7)nc5c3F)N3CCC[C@H]3CO4)c12 [Example 27, 2-amino-4-((S)-10-chloro-8-fluoro-6-(((2R,7aS)-2-fluorotetrahydro-1H-pyrrolizin-7a(5H)-yl)methoxy)-2,3,12,12a-tetrahydro-1H-pyrrolo[2′,1′:3,4][1,4]oxazepino[5,6,7-de]quinazolin-9-yl)-7-fluorobenzo[b]thiophene-3-carbonitrile] | 31 nM
10 | N#Cc1c(N)sc2c(F)ccc(-c3c(Cl)c4c5c(nc(OC[C@@]67CCCN6C[C@H](F)C7)nc5c3F)N3CCC[C@@H]3CCO4)c12 [Example 7, 2-amino-4-((13aR)-10-chloro-8-fluoro-6-(((2R,7aS)-2-fluorotetrahydro-1H-pyrrolizin-7a (5H)-yl)methoxy)-1,2,3,12,13,13a-hexahydropyrrolo[1′,2′:5,6][1,5]oxazocino[4,3,2-de]quinazolin-9-yl)-7-fluorobenzo[b]thiophene-3-carbonitrile] | 49 nM
11 | N#Cc1c(N)sc2c(F)ccc(-c3c(Cl)c4c5c(nc(OC[C@@]67CCCN6C[C@H](F)C7)nc5c3F)N3C[C@H](O)C[C@H]3CO4)c12 [Example 29, 2-amino-4-((2R,12aS)-10-chloro-8-fluoro-6-(((2R,7aS)-2-fluorotetrahydro-1H-pyrrolizin-7a(5H)-yl)methoxy)-2-hydroxy-2,3,12,12a-tetrahydro-1H-pyrrolo[2′,1′:3,4][1,4]oxazepino[5,6,7-de]quinazolin-9-yl)-7-fluorobenzo[b]thiophene-3-carbonitrile] | 91 nM

same assay, conditions: SW620 cells, 2 hrs compound treatment

Row | SMILES | IC50
12 | C#Cc1c(F)ccc2cc(O)cc(-c3nc4c5c(nc(OCC67CCCN6CC(F)C7)nc5c3F)N3CCC3CO4)c12 (single isomer, unassigned) [Example 20] | 40 nM

tested on: pERK1/2(THR202/TYR204) level in AsPC-1 cell line (KRAS G12D); test: KRAS G12D pERK assay (HTRF) in AsPC-1 cell line; type: cell-based; conditions: Homo sapiens, ASPC1; AsPC-1 cells, 2 h compound treatment
Experimental: as §1, with “AsPC-1” for “SW620”, “RPMI-1640” for “RPMI 1640”, “30000” for “40000”, “h” for “hrs”, “IC50 determination was performed by fitting the curve of percent inhibition versus the log of the inhibitor concentration using Dotmatics.” left out

Row | SMILES | IC50
13 | C#Cc1c(F)ccc2cc(O)cc(-c3nc4c5c(nc(OC[C@@]67CCCN6C[C@H](F)C7)nc5c3F)N3CCCC[C@H]3CO4)c12 [Example 16, 5-ethynyl-6-fluoro-4-((S)-1-fluoro-11-(((2R,7aS)-2-fluorotetrahydro-1H-pyrrolizin-7a(5H)-yl)methoxy)-5,5a,6,7,8,9-hexahydro-4-oxa-3,9a,10,12-tetraazabenzo[4,5]cyclohepta[1,2,3-d]naphthalen-2-yl)naphthalen-2-ol] | 6.3 nM

Source: patent US20250250287A1, “HETEROCYCLIC COMPOUNDS, COMPOSITIONS THEREOF, AND METHODS OF TREATMENT THEREWITH” (BeiGene Switzerland GmbH, priority 2022, published 2025)
